The record followed here is patent US9187426B2, “Organic compounds” (Novartis AG, priority 2008, dated 2015).

For series [1], the target named is T1, Stearoyl-CoA Desaturase (SCD1) (Mus musculus, UniProt P13516).
T1 construct: Reactions are started by adding 50 μL of microsomes (1.25 mg/mL); from tissue; host or cells: liver microsomes of male ICR outbred mice on a high-carbohydrate, low-fat diet
T1 sequence (P13516 1-355): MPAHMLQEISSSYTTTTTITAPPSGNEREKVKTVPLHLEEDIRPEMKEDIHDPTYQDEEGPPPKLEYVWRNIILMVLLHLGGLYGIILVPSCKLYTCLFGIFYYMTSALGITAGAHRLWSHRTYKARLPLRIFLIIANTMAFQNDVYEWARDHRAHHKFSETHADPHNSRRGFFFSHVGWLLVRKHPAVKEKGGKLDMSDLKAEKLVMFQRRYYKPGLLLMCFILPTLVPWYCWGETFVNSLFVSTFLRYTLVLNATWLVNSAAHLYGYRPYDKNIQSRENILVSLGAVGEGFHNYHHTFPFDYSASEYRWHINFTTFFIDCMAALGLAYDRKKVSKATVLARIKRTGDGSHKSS
As to the kind of experiment: SCD microsomal assay: release of 3H2O from [9,10-3H]stearoyl-CoA in mouse liver microsomes. Format: biochemical. Conditions: 15 min incubation, 25° C. The text has this: Measuring Stearoyl-CoA Desaturase Inhibition Activity of a Test Compound Using Mouse Liver Microsomes
The identification of compounds of the invention as SCD inhibitors was readily accomplished using the SCD microsomal assay procedure described in Shanklin J. and Summerville C., Proc. Natl. Acad. Sci. USA (1991), Vol. 88, pp. 2510-2514.
Male ICR outbread mice, on a high-carbohydrate, low fat diet, under light halothane (15% in mineral oil) anesthesia are sacrificed by exsanguination during periods of high enzyme activity. Livers are immediately rinsed with cold 0.9% NaCl solution, weighed and minced with scissors. All procedures are performed at 4° C. unless specified otherwise. Livers are homogenized in a solution (1/3 w/v) containing 0.25 M sucrose, 62 mM potassium phosphate buffer (pH 7.0), 0.15 M KCl, 15 mM N-acetyleysteine, 5 mM MgCl2, and 0.1 mM EDTA using 4 strokes of a Potter-Elvehjem tissue homogenizer. The homogenate is centrifuged at 10,400×g for 20 min to eliminate mitochondria and cellular debris. The supernatant is filtered through a 3-layer cheesecloth and centrifuged at 105,000×g for 60 min. The microsomal pellet is gently resuspended in the same homogenization solution with a small glass/teflon homogenizer and stored at −70° C. The absence of mitochondrial contamination is enzymatically assessed. The protein concentration is measured using bovine serum albumin as the standard.
Desaturase activity is measured as the release of ^3H2O from [9,10-^3H]stearoyl-CoA. Reactions per assay point conditions are as follows: 2 μL 1.5 mM stearoyl-CoA, 0.25 μL 1 mCi/mL ^3H stearoyl CoA, 10 μL 20 mM NADH, 36.75 μL 0.1 M PK buffer (K2HPO4/NaH2PO4, pH 7.2). The test compound or control solution is added in a 1 μL volume. Reactions are started by adding 50 μL of microsomes (1.25 mg/mL). The plates are mixed and after 15 min incubation on a heating block (25° C.), the reactions are stopped by the addition of 10 μL 60% PCA. An aliquot of 100 μL is then transferred to a filter plate pretreated with charcoal and the plate centrifuged at 4000 rpm for 1 minute. The flow through containing the ^3H2O released by the SCD1 desaturation reaction is added to scintillation fluid and the radioactivity measured in a Packard TopCount. The data is analysed to identify the IC50 for test compounds and reference compounds.

SMILES strings stand for the structures.

In the case of `Cc1cc(CNC(=O)c2ccnc(-n3cnn(Cc4ccc(F)cc4)c3=O)c2)no1` [Example 26.22, 2-(1-(4-Fluorobenzyl)-5-oxo-1H-1,2,4-triazol-4(5H)-yl)-N-((5-methylisoxazol-3-yl)methyl)-isonicotinamide], the melting point is 198 to 200 °C. The IC50 in series [1] is 10 nM.
The corresponding values for `O=C(NCc1ccccn1)c1ccnc(N2CCN(Cc3ccc(C(F)(F)F)cc3)C2=O)c1` [Example 26.12, 2-(2-Oxo-3-(4-(trifluoromethyl)benzyl)imidazolidin-1-yl)-N-(pyridin-2-ylmethyl)-isonicotinamide] are 161 to 163 °C and 10 nM.
The corresponding values for `O=C(NCc1ccccn1)c1ccnc(-n2cnn(Cc3ccc(F)cc3)c2=O)c1` [Example 26.27, 2-(1-(4-Fluorobenzyl)-5-oxo-1H-1,2,4-triazol-4(5H)-yl)-N-(pyridin-2-ylmethyl)-isonicotinamide] are 181 to 183 °C and 120 nM.
The corresponding values for `COc1cccc(C(=O)Nc2cc(C(=O)NCc3ccccc3)ccn2)c1` [Example 6.4, N-benzyl-2-(3-methoxybenzamido)isonicotinamide] are 95 to 96 °C and 130 nM.
In turn, `Cc1cc(CNC(=O)c2ccnc(-n3cnn(Cc4ccc(F)c(F)c4)c3=O)c2)no1` [Example 24, 2-(1-(3,4-Difluorobenzyl)-5-oxo-1H-1,2,4-triazol-4(5H)-yl)-N-((5-methylisoxazol-3-yl)methyl)-isonicotinamide] registered a melting point of 160 to 161 °C. This molecule also came in with an IC50 in series [1] of 20 nM.
Molecule `O=C(NCc1nccs1)c1ccnc(N2CCN(Cc3ccc(C(F)(F)F)cc3)C2=O)c1` [Example 23, 2-(2-Oxo-3-(4-(trifluoromethyl)benzyl)imidazolidin-1-yl)-N-(thiazol-2-ylmethyl)isonicotinamide] returned a melting point of 139 to 141 °C. The half-inhibitory concentration (IC50) in series [1] is 10 nM.
In the same order, the values of `Cc1cc(CNC(=O)c2ccnc(N3CCN(Cc4ccc(C(F)(F)F)cc4)C3=O)c2)no1` [Example 26.18, N-((5-Methylisoxazol-3-yl)methyl)-2-(2-oxo-3-(4-(trifluoromethyl)-benzyl)imidazolidin-1-yl)isonicotinamide] are 153 to 155 °C and 10 nM.
The corresponding values for `Cc1cnc(CNC(=O)c2ccnc(N3CCN(Cc4ccc(F)cc4)C3=O)c2)cn1` [Example 14.2, 2-(3-(4-fluorobenzyl)-2-oxoimidazolidin-1-yl)-N-((5-methylpyrazin-2-yl)methyl)isonicotinamide] are 169 to 171 °C and 80 nM.
In the same order, the values of `O=C(NCc1ccccn1)c1ccnc(N2CCN(Cc3ccc(OC(F)(F)F)cc3)C2=O)c1` [Example 26.15, 2-(2-Oxo-3-(4-(trifluoromethoxy)benzyl)imidazolidin-1-yl)-N-(pyridin-2-ylmethyl)-isonicotinamide] are 123 to 125 °C and 50 nM.
Molecule `O=C(Nc1cc(-c2nc(Cc3ccccc3)c[nH]2)ccn1)c1ccccc1` [Example 10.2, N-(4-(4-benzyl-1H-imidazol-2-yl)pyridin-2-yl)benzamide] had a melting point of 110 to 112 °C. For the same molecule, the IC50 in series [1] was found to be 170 nM.
`O=C(NCc1ccccn1)c1ccnc(N2CCN(Cc3ccc(F)c(F)c3)C2=O)c1` [Example 25, 2-(3-(3,4-Difluorobenzyl)-2-oxoimidazolidin-1-yl)-N-(pyridin-2-ylmethyl)-isonicotinamide]: the melting point fell in the range of 99 to 101 °C. Moreover, in series [1], the IC50 was 20 nM.
For `Cc1cc(CNC(=O)c2ccnc(N3CCN(Cc4ccc(F)c(F)c4)C3=O)c2)no1` [Example 26.23, 2-(3-(3,4-Difluorobenzyl)-2-oxoimidazolidin-1-yl)-N-((5-methylisoxazol-3-yl)methyl)-isonicotinamide], the melting point was 153 to 155 °C. 10 nM corresponded to half-maximal inhibition in series [1] (IC50).
Take `Cn1cnc(CNC(=O)c2ccnc(N3CCN(Cc4ccc(F)cc4)C3=O)c2)c1` [Example 14.5, 2-(3-(4-fluorobenzyl)-2-oxoimidazolidin-1-yl)-N-((1-methyl-1H-imidazol-4-yl)methyl)isonicotinamide]: the melting point lay within 174 to 176 °C. In addition, 190 nM corresponded to half-maximal inhibition in series [1] (IC50).

By melting point is commonly meant the temperature of the solid-liquid transition. In general, IC50 refers to the point on the concentration scale where inhibition reaches its midpoint. High values mean a need for much substance, low ones inhibition by little substance.
